Measurements from patent US5958973A, “Polyhydroxy benzoic acid derivatives and their use as neuraminidase inhibitors” (Gilead Sciences, Inc., priority 1995, dated 1999).

Target: neuraminidase
Assay type: biochemical
Conditions: in vitro enzyme inhibition; class symbols
Excerpt: Compositions of the invention are screened for inhibitory activity against neuraminidase by any of the conventional techniques for evaluating enzyme activity. […] Useful in vitro screens have been described in detail and will not be elaborated here.

Row | Structure (SMILES) | IC50 [µM]
1 | N=C(N)Nc1cc(C(=O)O)ccc1NC(=O)C(F)(F)F [Compound 208] | 20 to 75
2 | CCc1cc(C(=O)O)cc(NC(=N)N)c1NC(C)=O [Compound 213] | 75 to 100
